Results taken from patent US20230355596A1, “COMPOSITIONS AND METHODS OF USING NMDAR INHIBITORS AND KINASE INHIBITORS TO TREAT LIVER CANCER” (The University of Hong Kong, priority 2022, published 2023).

How the values were obtained:
RIL-175 cells = assay: Lung metastasis model (tail vein injection); assay type: in vivo, mouse; details: nude mice, 20 mg/kg ifenprodil, 28 mg/kg sorafenib, 10 days
HCC organoids = assay: Limiting dilution spheroid formation assay on organoids; assay type: cell-based, human; details: 20 μM ifenprodil and 8 μM sorafenib, 3 days
Method: Resuspended cells were cultured in DMEM/F12 (ThermoFisher Scientific) medium containing 0.25% methylcellulose (Sigma-Aldrich), 20 ng/ml EGF (Sigma-Aldrich), 10 ng/ml FGF (Sigma-Aldrich), 4 μg/ml insulin (Sigma-Aldrich), 1% B27 (ThermoFisher Scientific), and 1% antibiotic-antimycotic (ThermoFisher Scientific). Serial dilution of cells (5, 10, 20, 50, and 100 cells from the HCC cell lines and cells dissociated from the xenografts; 10, 20, 50, 100, 200 cells from the HCC organoids) were seeded onto a 96-well plate in 6 replicates for each dilution. Fresh medium was replenished every two days. The number of wells with spheroids formed were counted after a 10-day culture. The stem cell frequency was calculated using ELDA: Extreme Limiting Dilution Analysis (internet site bioinf.wehi.edu.au/software/elda/). In the data plots, the y-axis “fraction nonresponding” refers to the log proportion of number of cultures not responding to form spheroids, while the x-axis “dose (number of cells)” refers to the number of cells used in each culture. The slope of the line is the log-active cell fraction, representing the estimated active cell frequency in forming spheroids, and the dotted lines gives the 95% confidence interval.

MHCC97L cells [1] = assay: Cell cycle analysis (PI staining, flow cytometry); assay type: cell-based, human; details: 10 μM ifenprodil, 5 μM sorafenib, 24 hours
Excerpt: Cells transduced with florescent proteins were trypsinized, washed with PBS, and resuspended in PBS containing 2% FBS. Resuspended cells were subjected to flow cytometry analysis using the BD FACSCantoII, ACEA NovoCyte Quanteon (Agilent) or BD LSR Fortessa Analyzer (BD Biosciences). The signal of TurboRFP and EGFP was detected by a 561 nm yellow-green laser (610/20 nm) and a 488 nm blue laser (530/30 nm), respectively. For cell cycle analysis, cells harvested by trypsinization were washed by PBS. Cell pellets were fixed by ice-cold 70% ethanol at 4° C. for 1 hour. The fixed cells were rehydrated by replacing ethanol with PBS for 15 minutes at room temperature for cell cycle analysis. To remove RNAs, 5 μl RNase A (10 mg/ml) per 500 μl PBS was added and incubated at 37° C. for 15 minutes. The DNA contents were stained by propidium iodide (ThermoFisher Scientific) for 1 hour at room temperature in dark. Signal was detected by a 561 nm yellow-green laser (581/15 nm). FlowJo software (v10.5.3, Becton Dickinson) was used for data analysis. For cell sorting, cells were collected following the normal trypsinization and PBS washing steps. Cell pellets were resuspended in PBS with 2% FBS and 2X antibiotic-antimycotic. […] Signal was detected by a 488 nm blue laser (530/40 nm). ˜500-fold more cells were sorted into culture medium supplemented with 10% FBS and 2X antibiotic-antimycotic. […]

MHCC97L cells [2] = assay: RNA-sequencing of drug-treated cells; assay type: cell-based, human; details: 10 μM ifenprodil, 5 μM sorafenib, 24 hours
Method: 3×10^5 MHCC97L cells were seeded onto a 10 -cm dish. 10 μM ifenprodil, 5 μM sorafenib, or both were added to the cells 1 day after seeding, and the control group was treated with DMSO (Sigma-Aldrich). After 24 hours of drug treatment, RNA was extracted using the MiniBEST Universal RNA Extraction Kit (TaKaRa) following the manufacturer's protocol. The final product was eluted in DEPC-treated H2O (ThermoFisher Scientific). RNA-seq experiments were performed at the Centre for Genomic Sciences (LKS Faculty of Medicine, The University of Hong Kong). The Illumina adaptors of the paired-end raw sequence reads were trimmed by Trimmomatic 0.39. The STAR aligner version 2.7 was used to align the sequence reads to the human genome (GRCh38.p13, Ensembl release 99) and quantify read counts for each Ensembl gene feature, which generated the raw count gene matrix. Differential expression analysis was performed in R (v 3.6.3) using DESeq2 (1.26.0) with the raw count matrix as input. Three biological replicates each for the ifenprodil-, sorafenib-, and ifenprodil+sorafenib combination-treated groups are compared against the DMSO-treated negative control group. Differentially expressed genes (DEGs) were identified as genes with the absolute values of its shrunken log2 fold-changes bigger than 1 and a false discovery rate smaller than 0.05. Gene annotation was done using the bioMaRt (2.42.1) package with Ensembl Human genes (GRCh38.p13) dataset. Gene ontology enrichment analysis was performed on up/down regulated DEGs retrieved from either ifenprodil, sorafenib, or ifenprodil+sorafenib treatment using string v11.0 (internet site: string-db.org/). Top hits Gene ontologies (biological processes) were identified as GO enriched with a false discovery rate less than 0.01 and contain more than 40 observations for over-expressions and down-regulations of DEGs in total across all treatments. More specific GO terms containing fewer than 3000 genes and fewer than 300 observations across all treatments were then focused on.

## CC(C(O)c1ccc(O)cc1)N1CCC(Cc2ccccc2)CC1 (centres unmarked) [Ifenprodil, ifenprodil]
RIL-175 cells
  metastases of mouse HCC cells to form tumors in the lung: did not affect the metastases
HCC organoids
  ability of HCC organoids to assemble tumor spheroids: not either drug alone
MHCC97L cells [1]
  G1-phase cell-cycle arrest: not with either IFEN or SOR alone
MHCC97L cells [2]
  CDK1A expression (RNA-seq) compared to non-treated cells: significantly upregulated
  CDK2 expression (RNA-seq) compared to non-treated cells: significantly downregulated
  DDIT3 expression (RNA-seq) compared to non-treated cells: significantly upregulated
  ERN1 expression (RNA-seq) compared to non-treated cells: no differences were observed

## CNC(=O)c1cc(Oc2ccc(NC(=O)Nc3ccc(Cl)c(C(F)(F)F)c3)cc2)ccn1 [Sorafenib, sorafenib]
RIL-175 cells
  metastases of mouse HCC cells to form tumors in the lung: did not affect the metastases
HCC organoids
  ability of HCC organoids to assemble tumor spheroids: not either drug alone
MHCC97L cells [1]
  G1-phase cell-cycle arrest: not with either IFEN or SOR alone
MHCC97L cells [2]
  CDK1A expression (RNA-seq) compared to non-treated cells: significantly upregulated
  CDK2 expression (RNA-seq) compared to non-treated cells: significantly downregulated
  DDIT3 expression (RNA-seq) compared to non-treated cells: significantly upregulated
  ERN1 expression (RNA-seq) compared to non-treated cells: significantly upregulated
